Source: ChEMBL document CHEMBL1154074, “3D-QSAR with the aid of pharmacophore search and docking-based alignments for farnesyltransferase inhibitors” (Eur J Med Chem, 2009)

Experiment: Inhibition of FTase

Row | Structure (SMILES) | pIC50
1 | N#Cc1ccc(COCc2cncn2Cc2ccc(C#N)cc2-c2cccc3ccccc23)cc1 | 9.02
2 | N#Cc1ccc(Cn2cncc2COCc2ccc(C#N)cc2-c2cccc(OC(F)(F)F)c2)cc1 | 9.31
3 | Cc1ccc(-c2cc(C#N)ccc2COCc2cncn2Cc2ccc(C#N)cc2)cc1C | 9.22
4 | N#Cc1ccc(Cn2cncc2COCc2ccc(C#N)cc2-c2ccc(C(F)(F)F)cc2)cc1 | 8.37
5 | N#Cc1ccc(Cn2cncc2COc2ccc(Cl)cc2-c2cccc(Cl)c2)cc1 | 8.4
6 | N#Cc1ccc(COCc2cncn2Cc2ccc(Cl)cc2)c(-c2ccc3c(c2)OCO3)c1 | 8.08
7 | CCOc1cccc(-c2cc(C#N)ccc2COCc2cncn2Cc2ccc(C#N)nc2)c1 | 9.24
8 | N#Cc1ccc(Cn2cncc2CNCc2ccc(C#N)c(-c3cccc4ccccc34)c2)cc1 | 8.19
9 | CC(C)(C)c1ccc(-c2cc(C#N)ccc2COCc2cncn2Cc2ccc(C#N)cc2)cc1 | 9.36
10 | N#Cc1ccc(COCc2cncn2Cc2ccc(C#N)nc2)c(-c2ccc3c(c2)OCO3)c1 | 8.52
11 | N#Cc1ccc(Cn2cncc2COCc2ccc(C#N)cc2-c2ccc3ccccc3c2)cc1 | 9.04
12 | CCOc1ccc(-c2cc(C#N)ccc2COCc2cncn2Cc2ccc(C#N)cc2)cc1 | 8.9
13 | N#Cc1ccc(OCc2cncn2Cc2ccc(C#N)c(-c3cccc4ccccc34)c2)nc1 | 9.05
14 | COc1ccc(-c2cc(C#N)ccc2COCc2cncn2Cc2ccc(C#N)cc2)cn1 | 8.12
15 | N#Cc1ccc(COCc2cncn2Cc2ccc(C#N)nc2)c(-c2cccc(Cl)c2)c1 | 8.52
16 | COc1cccc(-c2cc(C#N)ccc2COCc2cncn2Cc2ccc(C#N)cn2)c1 | 8.36
17 | N#Cc1ccc(OCc2cncn2Cc2ccc(C#N)c(-c3cccc4ccccc34)c2)cc1 | 9.49
18 | N#Cc1ccc(Cn2cncc2COCc2ccc(C#N)c(-c3cccc4ccccc34)c2)cc1 | 8.32
19 | COc1cccc(-c2cc(C#N)ccc2COCc2cncn2Cc2ccc(C#N)nc2)c1 | 8.82
20 | N#Cc1ccc(Cn2cncc2COCc2ccc(C#N)cc2-c2cccc(Cl)c2)cc1 | 9.43
21 | N#Cc1ccc(Cn2cncc2COCc2ccc(Cl)cc2-c2cccc(Cl)c2)cc1 | 9.21
22 | N#Cc1ccc(Cn2cncc2COCc2ccc(C#N)cc2-c2ccc3c(c2)OCO3)nc1 | 8.33

Row | Structure (SMILES) | pIC50
23 | N#Cc1ccc(Cn2cncc2COc2ccc(C#N)c(-c3cccc4ccccc34)c2)cc1 | 9.42
24 | CS(=O)(=O)c1ccc(Cn2cncc2COCc2ccc(C#N)cc2-c2cccc(Cl)c2)cc1 | 7.02
25 | N#Cc1ccc(COCc2cncn2Cc2ccc(C#N)cc2-c2cccc(Cl)c2)c(-c2cccc(Cl)c2)c1 | 8
26 | N#Cc1ccc(Cn2cncc2COCc2ccc(C#N)cc2-c2ccc(Cl)c(Cl)c2)cc1 | 9.43
27 | N#Cc1ccc(Cn2cncc2COCc2cnc(C#N)cc2-c2cccc(Cl)c2)cc1 | 8.37
28 | N#Cc1cn(Cc2cncn2Cc2ccc3c(c2)OCO3)cc1-c1cccc2ccccc12 | 8.21
29 | Cn1c(=O)cc(-c2cccc(Cl)c2)c2cc(C(N)c3cncn3Cc3ccc(C#N)cc3)ccc21 (centres undefined) | 8.42
30 | Cn1c(=O)cc(-c2cccc(Cl)c2)c2cc(C(=O)c3cncn3Cc3ccc(C#N)cc3)ccc21 | 7.54
31 | Cn1c(=O)cc(-c2cccc(Cl)c2)c2cc(COCc3cncn3Cc3ccc(C#N)cc3)ccc21 | 7.05
32 | N#Cc1ccc(Cn2cncc2COCc2ccc(C#N)cc2-c2cccc(Cl)c2)nc1 | 8.77
33 | N#Cc1ccc(Cn2cncc2COCc2ccc(C#N)cc2-c2cccc3ccccc23)cc1 | 8.89
34 | CCOc1cccc(-c2cc(C#N)ccc2COCc2cncn2Cc2ccc(Cl)cc2)c1 | 8.85
35 | N#Cc1ccc(Cn2cncc2COCc2ccc(C#N)cc2-c2ccc(OC(F)(F)F)cc2)cc1 | 9.19
36 | N#Cc1ccc(Cn2cncc2COCc2ccc(C#N)cc2-c2cccc3c2OCO3)cc1 | 9.09
37 | N#Cc1ccc(COCc2cncn2Cc2ccc(C#N)cc2-c2cccc3ccccc23)c(-c2ccc3c(c2)OCO3)c1 | 8.17
38 | CC(=O)c1ccc(-c2cc(C#N)ccc2COCc2cncn2Cc2ccc(C#N)cc2)cc1 | 8.89
39 | Cn1c(=O)cc(-c2cccc(Cl)c2)c2cc(C(NC=O)c3cncn3Cc3ccc(C#N)cc3)ccc21 (centres undefined) | 8.68
40 | COc1cccc(-c2cc(C#N)ccc2COCc2cncn2Cc2ccc(Cl)cc2)c1 | 8.66
41 | Cn1c(=O)cc(-c2cccc(Cl)c2)c2cc(C(O)c3cncn3Cc3ccc(C#N)cc3)ccc21 (centres undefined) | 7.33
42 | N#Cc1ccc(Cn2cncc2Cn2cc(C#N)c(-c3cccc4ccccc34)c2)cc1 | 9.24
43 | CC(=O)Nc1cccc(-c2cc(C#N)ccc2COCc2cncn2Cc2ccc(C#N)cc2)c1 | 7.89
44 | N#Cc1ccc(Cn2cncc2Cn2ccc3c(C#N)c(-c4cccc5ccccc45)ccc32)cc1 | 9.82
